Source: US8367695B2, “Condensed tetrahydroquinoline derivative and use thereof for medical purposes” (Mitsubishi Tanabe Pharma Corporation, priority 2007, dated 2013)
Like-named read-outs stand apart in the source and are kept apart here.

Biological target: T1, human recombinant progesterone receptor-B (PRB) (Homo sapiens, UniProt P06401)
T1 construct: purchased Invitrogen (Carlsbad, Calif.)
T1 sequence (P06401 1-933): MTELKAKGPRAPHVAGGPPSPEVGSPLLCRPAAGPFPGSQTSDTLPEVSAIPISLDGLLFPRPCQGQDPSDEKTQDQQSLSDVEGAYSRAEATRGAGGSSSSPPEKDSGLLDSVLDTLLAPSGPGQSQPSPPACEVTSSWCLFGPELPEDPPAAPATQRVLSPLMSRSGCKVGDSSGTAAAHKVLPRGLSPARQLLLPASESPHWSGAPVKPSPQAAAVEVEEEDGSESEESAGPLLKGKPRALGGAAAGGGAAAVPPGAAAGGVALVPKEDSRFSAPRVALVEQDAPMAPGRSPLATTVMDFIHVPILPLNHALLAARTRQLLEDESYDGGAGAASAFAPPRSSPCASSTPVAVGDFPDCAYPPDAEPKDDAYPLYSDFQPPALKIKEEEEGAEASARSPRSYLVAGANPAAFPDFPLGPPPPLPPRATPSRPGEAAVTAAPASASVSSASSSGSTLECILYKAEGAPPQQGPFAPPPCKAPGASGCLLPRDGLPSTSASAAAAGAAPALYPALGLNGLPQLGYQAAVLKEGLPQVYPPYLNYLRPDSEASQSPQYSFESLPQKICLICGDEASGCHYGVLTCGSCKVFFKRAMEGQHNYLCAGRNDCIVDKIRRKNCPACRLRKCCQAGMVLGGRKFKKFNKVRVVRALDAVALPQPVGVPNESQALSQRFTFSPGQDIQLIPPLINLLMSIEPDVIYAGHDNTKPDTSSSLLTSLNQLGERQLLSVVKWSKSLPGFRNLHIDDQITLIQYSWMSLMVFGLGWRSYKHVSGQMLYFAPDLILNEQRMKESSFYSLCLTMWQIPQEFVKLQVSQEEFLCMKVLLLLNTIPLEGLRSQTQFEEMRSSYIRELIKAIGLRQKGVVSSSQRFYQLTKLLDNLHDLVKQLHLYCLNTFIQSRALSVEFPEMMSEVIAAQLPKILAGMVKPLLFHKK
Experiment: Radioactive ligand binding test, PRB cytosol, [3H]-Prog
Description: Radioactive Ligand Binding Test Using Cytosols of Human Glucocorticoids Receptor, Progesterone Receptor and Mineralocorticoid Receptor
The procedures described in Neuroimmunomodulation (1994, 1, p. 66-73) and Invest. Opthalmol. Vis. Sci. (1996, 37, p. 805-813) were modified and used. In brief, cytosol preparations of human recombinant glucocorticoids receptor (GR) and human recombinant progesterone receptor-B (PRB) were purchased from Invitrogen (Carlsbad, Calif.), and a cytosol preparation of human recombinant mineralocorticoid receptor (MR) was prepared by our company (Yokohama, JP). MR cDNA was cloned into a baculovirus expression vector and expressed in insect cell Sf9. The procedures described in J. Biol. Chem. (1991, 266, p. 18072-18081), Proc. Natl. Acad. Sci. USA (1991, 88, p. 10681-10685) and Bac-to-Bac (registered trade mark) Baculovirus Expression Systems technical manual (Invitrogen) were partly modified and used as the procedures for MR gene cloning up to preparation of recombinant receptor cytosol. [^3H]-Dexamethasone (Dex, specific activity 91.0 Ci/mmol) was purchased from GE Healthcare (Buckinghamshire, UK), and [^3H]-progesterone (Prog, specific activity 103 Ci/mmol) and [3H]-aldosterone (Ald, specific activity 87.9 Ci/mmol) were each purchased from PerkinElmer (Boston, Mass.). Polypropylene round-bottomed 96 well plate was obtained from ABgene (Epsom, UK). Dimethyl Sulfoxide (DMSO) and hydrochloric acid were obtained from Kanto Chemical (TOKYO, JP). Trizma Base (Tris), Bovine Serum Albumin (BSA) and Sodium tungstate dihydrate were obtained from Sigma Chemicals (St. Louis, Mo.). Dithiothreitol (DTT) and Dextran 70 were obtained from GE Healthcare (Buckinghamshire, UK). Glycerol was obtained from Junsei Chemical (TOKYO, JP). Norit® “SX-II” was obtained from Wako Pure Chemical Industries, Ltd. (Osaka, JP). MeltiLex™, A, Printed Filtermat A and Sample Bag were obtained from PerkinElmer (Boston, Mass.).
As a buffer for GR binding assay, 25 mM Tris-HCl (4° C., pH 7.4)/1 mM EDTA·2Na/1 mM DTT/0.1% BSA was prepared and used. As buffers for PRB and MR binding assay, 10 mM Tris-HCl (4° C., pH 7.4)/1 mM DTT/0.1% BSA/10% glycerol and 20 mM Tris-HCl (4° C., pH 7.4)/1 mM EDTA·2Na/10% glycerol/20 mM sodium tungstate were respectively prepared and used. As dextran-coated charcoal (DCC) for B/F separation, 0.75% Dextran 70/0.75% Norit® SX-II/10 mM Tris-HCl (4° C., pH 7.4) was prepared and used.
Compound storage solutions (5-20 mM) were prepared using DMSO. The storage solutions were diluted with DMSO to 0.1 mM (for GR) and 0.3 mM (for PRB and MR), and further diluted 20-fold with distilled water to give solutions. Then, the preparations were diluted to each concentration with 5% DMSO solution. 1% DMSO was present at the time of the binding assay.
In the case of PRB binding assay, [^3H]-Prog (about 5 nM), PRB cytosol (concentration of function receptor: about 4 pmol/mL), a test compound and a binding buffer were mixed in a total volume of 50 μL, and the mixture was stood at 4° C. for 30 min or longer. A specific binding was defined to be the difference in the [^3H]-Prog binding between the presence and the absence of 1 μM unlabeled Prog.
After the reaction, 50 μL of DCC was added to each well and blended. Thereafter, the mixture was stood at 4° C. for 10 min. The plate was applied to high-speed cooling centrifuge under the conditions of 4° C., 2000 rpm, 5 min to perform B/F separation. A given amount of the supernatant was recovered, which was spotted on Filtermat A of 96 well format (PerkinElmer) and rapidly dried at a high temperature. Then, solid scintillator MeltiLex A (PerkinElmer) was melted on Filtermat A. The mixture was placed in a Sample Bag (PerkinElmer), and the level of radioactivity was measured by plate reader 1450 Micro Beta TRILUX (PerkinElmer).
Measurement of Inhibition Constant (Ki)

[1] = [3H]-Prog about 5 nM, PRB cytosol, 4° C., Cheng-Prusoff, Kd about 3.5 nM, read-out: PR (Ki: nM)

SMILES | Ki [1] | Ki
Cc1noc(C)c1-c1cc2c(c3c1CCC3)NC(C)(C)C(=O)C2(C)C [Example 2, 6-(3,5-dimethylisoxazol-4-yl)-2,2,4,4-tetramethyl-2,3,4,7,8,9-hexahydro-1H-cyclopenta[h]quinolin-3-one] | > 1250 nM | 
Cc1nnn(C)c1-c1cc2c(c3c1CCC3)NC(C)(C)C(=O)C2(C)C [Example 4, 6-(3,5-dimethyl-3H-[1,2,3]triazol-4-yl)-2,2,4,4-tetramethyl-2,3,4,7,8,9-hexahydro-1H-cyclopenta[h]quinolin-3-one] | > 1250 nM | 
CC1(C)Nc2c(cc(-c3ccnc4cc[nH]c34)c3c2CCC3)C(C)(C)C1=O [Example 13, 2,2,4,4-tetramethyl-6-(1H-pyrrolo[3,2-b]pyridin-7-yl)-2,3,4,7,8,9-hexahydro-1H-cyclopenta[h]quinolin-3-one] | > 1250 nM | 
CC1(C)Nc2c(cc(-c3cccc4nccn34)c3c2CCC3)C(C)(C)C1=O [Example 14, 6-(imidazo[1,2-a]pyridin-5-yl)-2,2,4,4-tetramethyl-2,3,4,7,8,9-hexahydro-1H-cyclopenta[h]quinolin-3-one] | > 1250 nM | 
CC1(C)Nc2c(cc(-c3cccc4nncn34)c3c2CCC3)C(C)(C)C1=O [Example 17, 2,2,4,4-tetramethyl-6-([1,2,4]triazolo[4,3-a]pyridin-5-yl)-2,3,4,7,8,9-hexahydro-1H-cyclopenta[h]quinolin-3-one] |  | > 1250 nM
CC1(C)Nc2c(cc(-c3cccc4ncccc34)c3c2CCC3)C(C)(C)C1=O [Example 20, 2,2,4,4-tetramethyl-6-(quinolin-5-yl)-2,3,4,7,8,9-hexahydro-1H-cyclopenta[h]quinolin-3-one] | > 1250 nM | 
CC1(C)Nc2c(cc(-c3ccnc4ncccc34)c3c2CCC3)C(C)(C)C1=O [Example 21, 2,2,4,4-tetramethyl-6-([1,8]naphthyridin-4-yl)-2,3,4,7,8,9-hexahydro-1H-cyclopenta[h]quinolin-3-one] | > 1250 nM | 
C=C1C(C)(C)Nc2c(cc(-c3c(C)ncn3C)c3c2CCC3)C1(C)C [Example 29, 6-(3,5-dimethyl-3H-imidazol-4-yl)-2,2,4,4-tetramethyl-3-methylene-2,3,4,7,8,9-hexahydro-1H-cyclopenta[h]quinoline] | > 1250 nM | 
C=CCC1(C)C(=O)C(C)(C)Nc2c1cc(-c1ccc(O)cc1C)c1c2CCC1 (stereo not drawn) [Example 50, 4-allyl-6-(4-hydroxy-2-methylphenyl)-2,2,4-trimethyl-2,3,4,7,8,9-hexahydro-1H-cyclopenta[h]quinolin-3-one] | > 1250 nM | 
C=CCC1(C)C(=O)C(C)(C)Nc2c1cc(-c1c(C)noc1C)c1c2CCC1 (stereo not drawn) [Example 51, 4-allyl-6-(3,5-dimethylisoxazol-4-yl)-2,2,4-trimethyl-2,3,4,7,8,9-hexahydro-1H-cyclopenta[h]quinolin-3-one] | > 1250 nM | 
C=CCC1(C)C(=O)C(C)(C)Nc2c1cc(-c1cccc3nccn13)c1c2CCC1 (stereo not drawn) [Example 57, 4-allyl-6-(imidazo[1,2-a]pyridin-5-yl)-2,2,4-trimethyl-2,3,4,7,8,9-hexahydro-1H-cyclopenta[h]quinolin-3-one] | > 1250 nM | 
CCC1(C)C(=O)C(C)(C)Nc2c1cc(-c1cccc3nccn13)c1c2CCC1 (stereo not drawn) [Example 58, 4-ethyl-6-(imidazo[1,2-s]pyridin-5-yl)-2,2,4-trimethyl-2,3,4,7,8,9-hexahydro-1H-cyclopenta[h]quinolin-3-one] | 1010 nM | 
CC#CCC1(C)C(=O)C(C)(C)Nc2c1cc(-c1cccc3nccn13)c1c2CCC1 (stereo not drawn) [Example 63, 4-(2-butynyl)-6-(imidazo[1,2-a]pyridin-5-yl)-2,2,4-trimethyl-2,3,4,7,8,9-hexahydro-1H-cyclopenta[h]quinolin-3-one] | > 1250 nM | 
Cc1noc(C)c1-c1cc2c(c3c1OCO3)NC(C)(C)C(=O)C2(C)C [Example 69, 4-(3,5-dimethylisoxazol-4-yl)-6,6,8,8-tetramethyl-6,7,8,9-tetrahydro-[1,3]dioxolo[4,5-h]quinolin-7-one] | > 1250 nM | 
CC1(C)Nc2c(cc(-c3cccc4nccn34)c3c2OCO3)C(C)(C)C1=O [Example 71, 4-(imidazo[1,2-a]pyridin-5-yl)-6,6,8,8-tetramethyl-6,7,8,9-tetrahydro-[1,3]dioxolo[4,5-h]quinolin-7-one] | > 1250 nM | 
CC1(C)Nc2c(cc(-c3cccc4ncccc34)c3c2OCO3)C(C)(C)C1=O [Example 72, 6,6,8,8-tetramethyl-4-(quinolin-5-yl)-6,7,8,9-tetrahydro-[1,3]dioxolo[4,5-h]quinolin-7-one] | > 1250 nM | 
C=CCC1(C)C(=O)C(C)(C)Nc2c1cc(-c1cccc3cc[nH]c13)c1c2OCO1 (stereo not drawn) [Example 78, 6-allyl-4-(1H-indol-7-yl)-6,8,8-trimethyl-6,7,8,9-tetrahydro-[1,3]dioxolo[4,5-h]quinolin-7-one] |  | > 1250 nM
CC1(C)Nc2c(cc(-c3cccc4nccn34)c3c2OC(F)(F)O3)C(C)(C)C1=O [Example 82, 2,2-difluoro-4-(imidazo[1,2-a]pyridin-5-yl)-6,6,8,8-tetramethyl-6,7,8,9-tetrahydro-[1,3]dioxolo[4,5-h]quinolin-7-one] | > 1250 nM | 
Cc1noc(C)c1-c1cc2c(c3c1OCC3)NC(C)(C)C(=O)C2(C)C [Example 84, 6-(3,5-dimethylisoxazol-4-yl)-2,2,4,4-tetramethyl-1,2,3,4,8,9-hexahydro-furo[2,3-h]quinolin-3-one] | > 1250 nM | 
CC1(C)Nc2c(cc(-c3cccc4nccn34)c3c2CCO3)C(C)(C)C1=O [Example 88, 6-(imidazo[1,2-a]pyridin-5-yl)-2,2,4,4-tetramethyl-1,2,3,4,8,9-hexahydro-furo[2,3-h]quinolin-3-one] | > 1250 nM | 
CC1(C)Nc2c(cc(-c3ccnc4ncccc34)c3c2CCO3)C(C)(C)C1=O [Example 92, 2,2,4,4-tetramethyl-6-([1,8]naphthyridin-4-yl)-1,2,3,4,8,9-hexahydro-furo[2,3-h]quinolin-3-one] | > 1250 nM | 
